This passage reports Kd results from ChEMBL document CHEMBL3991601, “The target landscape of clinical kinase drugs” (Science, 2017).

For test [1], the target named is T1, Receptor-type tyrosine-protein kinase FLT3 (Homo sapiens, UniProt P36888).
T1 sequence (P36888 whole entry): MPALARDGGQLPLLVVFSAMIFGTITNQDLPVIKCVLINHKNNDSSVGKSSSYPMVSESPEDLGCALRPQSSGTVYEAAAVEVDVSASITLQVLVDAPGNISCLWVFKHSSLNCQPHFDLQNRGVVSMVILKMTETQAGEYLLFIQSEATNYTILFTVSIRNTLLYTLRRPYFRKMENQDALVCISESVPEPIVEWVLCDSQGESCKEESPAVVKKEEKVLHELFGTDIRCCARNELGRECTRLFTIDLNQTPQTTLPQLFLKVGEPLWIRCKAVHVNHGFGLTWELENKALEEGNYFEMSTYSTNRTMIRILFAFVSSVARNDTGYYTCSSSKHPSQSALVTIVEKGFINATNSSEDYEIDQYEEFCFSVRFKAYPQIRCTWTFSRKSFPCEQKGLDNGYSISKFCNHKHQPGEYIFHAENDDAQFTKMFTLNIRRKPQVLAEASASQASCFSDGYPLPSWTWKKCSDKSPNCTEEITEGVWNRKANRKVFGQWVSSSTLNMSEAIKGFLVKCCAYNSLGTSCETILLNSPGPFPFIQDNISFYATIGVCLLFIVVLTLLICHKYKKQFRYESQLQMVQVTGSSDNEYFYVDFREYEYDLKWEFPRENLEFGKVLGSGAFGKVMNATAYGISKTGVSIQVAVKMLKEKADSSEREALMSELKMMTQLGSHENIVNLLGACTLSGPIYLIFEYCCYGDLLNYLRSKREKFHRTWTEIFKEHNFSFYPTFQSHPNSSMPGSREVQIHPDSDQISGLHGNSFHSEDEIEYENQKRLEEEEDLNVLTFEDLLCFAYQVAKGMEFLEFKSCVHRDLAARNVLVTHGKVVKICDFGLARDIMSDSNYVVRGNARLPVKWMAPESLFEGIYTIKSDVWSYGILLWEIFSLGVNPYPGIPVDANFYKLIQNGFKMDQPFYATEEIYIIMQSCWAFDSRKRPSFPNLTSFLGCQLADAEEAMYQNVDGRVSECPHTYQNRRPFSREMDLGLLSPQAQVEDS

The target of test [2] is TRAF2 and NCK-interacting protein kinase (Homo sapiens, UniProt Q9UKE5).
The target in test [3] is Tyrosine-protein kinase BTK (Homo sapiens, UniProt Q06187).
Test [4] addresses DNA topoisomerase 2-alpha (Homo sapiens, UniProt P11388).
Test [5] has as its target Mitogen-activated protein kinase kinase kinase 1 (Homo sapiens, UniProt Q13233).
The target of test [6] is Mitogen-activated protein kinase kinase kinase 4 (Homo sapiens, UniProt Q9Y6R4).
Test [7] addresses T2, Non-receptor tyrosine-protein kinase TNK1 (Homo sapiens, UniProt Q13470).
T2 sequence (Q13470 whole entry): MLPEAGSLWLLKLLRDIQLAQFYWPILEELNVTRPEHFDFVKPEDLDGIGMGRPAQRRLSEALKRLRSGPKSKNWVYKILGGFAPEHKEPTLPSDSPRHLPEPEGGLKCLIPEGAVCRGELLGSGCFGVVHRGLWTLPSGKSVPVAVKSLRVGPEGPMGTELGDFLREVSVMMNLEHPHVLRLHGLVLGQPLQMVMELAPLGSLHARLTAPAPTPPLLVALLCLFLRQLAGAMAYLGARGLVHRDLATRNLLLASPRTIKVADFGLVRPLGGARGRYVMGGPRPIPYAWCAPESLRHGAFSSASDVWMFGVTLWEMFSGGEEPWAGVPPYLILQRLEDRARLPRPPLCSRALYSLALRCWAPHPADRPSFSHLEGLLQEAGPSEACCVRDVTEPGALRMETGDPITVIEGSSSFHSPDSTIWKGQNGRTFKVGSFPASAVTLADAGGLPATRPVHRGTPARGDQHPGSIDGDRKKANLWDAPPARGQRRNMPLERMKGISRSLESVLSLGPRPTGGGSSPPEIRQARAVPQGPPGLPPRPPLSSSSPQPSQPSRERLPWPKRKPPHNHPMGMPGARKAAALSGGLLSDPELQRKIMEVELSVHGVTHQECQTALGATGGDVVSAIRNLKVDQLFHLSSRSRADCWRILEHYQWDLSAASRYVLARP

Test [8] deals with Serine/threonine-protein kinase SIK2 (Homo sapiens, UniProt Q9H0K1).
The target of test [9] is Rho-associated protein kinase 2 (Homo sapiens, UniProt O75116).
Test [10] deals with T3, Serine/threonine-protein kinase TAO3 (Homo sapiens, UniProt Q9H2K8).
T3 sequence (Q9H2K8 whole entry): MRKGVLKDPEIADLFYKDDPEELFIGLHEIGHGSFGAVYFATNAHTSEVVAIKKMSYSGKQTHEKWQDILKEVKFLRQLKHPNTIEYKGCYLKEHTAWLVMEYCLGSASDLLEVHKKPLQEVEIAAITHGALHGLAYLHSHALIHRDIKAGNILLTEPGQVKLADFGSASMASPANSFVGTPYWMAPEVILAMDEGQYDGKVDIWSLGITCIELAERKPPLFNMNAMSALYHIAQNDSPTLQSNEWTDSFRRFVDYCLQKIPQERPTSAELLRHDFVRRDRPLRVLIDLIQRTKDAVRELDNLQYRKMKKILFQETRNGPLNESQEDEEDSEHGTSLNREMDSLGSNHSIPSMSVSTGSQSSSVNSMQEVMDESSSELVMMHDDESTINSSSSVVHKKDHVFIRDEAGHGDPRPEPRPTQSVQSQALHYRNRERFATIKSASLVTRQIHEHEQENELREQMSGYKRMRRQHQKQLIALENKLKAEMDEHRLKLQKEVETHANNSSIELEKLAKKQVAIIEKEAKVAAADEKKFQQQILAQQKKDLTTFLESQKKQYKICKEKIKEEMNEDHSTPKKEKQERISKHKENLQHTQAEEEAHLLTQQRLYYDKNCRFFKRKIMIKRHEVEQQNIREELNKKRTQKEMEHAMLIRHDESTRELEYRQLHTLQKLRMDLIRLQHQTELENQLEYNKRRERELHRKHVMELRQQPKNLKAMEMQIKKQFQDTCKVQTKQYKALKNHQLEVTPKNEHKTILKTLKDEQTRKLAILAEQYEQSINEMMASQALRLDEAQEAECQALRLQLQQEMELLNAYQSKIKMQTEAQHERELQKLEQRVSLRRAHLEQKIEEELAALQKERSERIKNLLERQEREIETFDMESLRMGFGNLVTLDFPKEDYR

Structures are written as SMILES. Structures can show the parent of a compound that is named as a salt. Activity calls are given as the source filed them. For most assays here, no stated cut-off is given here; in the data, actives have a measured Kd and inactives only a lower limit.

Mitogen-activated protein kinase kinase kinase 4, sequence (Q9Y6R4 whole entry): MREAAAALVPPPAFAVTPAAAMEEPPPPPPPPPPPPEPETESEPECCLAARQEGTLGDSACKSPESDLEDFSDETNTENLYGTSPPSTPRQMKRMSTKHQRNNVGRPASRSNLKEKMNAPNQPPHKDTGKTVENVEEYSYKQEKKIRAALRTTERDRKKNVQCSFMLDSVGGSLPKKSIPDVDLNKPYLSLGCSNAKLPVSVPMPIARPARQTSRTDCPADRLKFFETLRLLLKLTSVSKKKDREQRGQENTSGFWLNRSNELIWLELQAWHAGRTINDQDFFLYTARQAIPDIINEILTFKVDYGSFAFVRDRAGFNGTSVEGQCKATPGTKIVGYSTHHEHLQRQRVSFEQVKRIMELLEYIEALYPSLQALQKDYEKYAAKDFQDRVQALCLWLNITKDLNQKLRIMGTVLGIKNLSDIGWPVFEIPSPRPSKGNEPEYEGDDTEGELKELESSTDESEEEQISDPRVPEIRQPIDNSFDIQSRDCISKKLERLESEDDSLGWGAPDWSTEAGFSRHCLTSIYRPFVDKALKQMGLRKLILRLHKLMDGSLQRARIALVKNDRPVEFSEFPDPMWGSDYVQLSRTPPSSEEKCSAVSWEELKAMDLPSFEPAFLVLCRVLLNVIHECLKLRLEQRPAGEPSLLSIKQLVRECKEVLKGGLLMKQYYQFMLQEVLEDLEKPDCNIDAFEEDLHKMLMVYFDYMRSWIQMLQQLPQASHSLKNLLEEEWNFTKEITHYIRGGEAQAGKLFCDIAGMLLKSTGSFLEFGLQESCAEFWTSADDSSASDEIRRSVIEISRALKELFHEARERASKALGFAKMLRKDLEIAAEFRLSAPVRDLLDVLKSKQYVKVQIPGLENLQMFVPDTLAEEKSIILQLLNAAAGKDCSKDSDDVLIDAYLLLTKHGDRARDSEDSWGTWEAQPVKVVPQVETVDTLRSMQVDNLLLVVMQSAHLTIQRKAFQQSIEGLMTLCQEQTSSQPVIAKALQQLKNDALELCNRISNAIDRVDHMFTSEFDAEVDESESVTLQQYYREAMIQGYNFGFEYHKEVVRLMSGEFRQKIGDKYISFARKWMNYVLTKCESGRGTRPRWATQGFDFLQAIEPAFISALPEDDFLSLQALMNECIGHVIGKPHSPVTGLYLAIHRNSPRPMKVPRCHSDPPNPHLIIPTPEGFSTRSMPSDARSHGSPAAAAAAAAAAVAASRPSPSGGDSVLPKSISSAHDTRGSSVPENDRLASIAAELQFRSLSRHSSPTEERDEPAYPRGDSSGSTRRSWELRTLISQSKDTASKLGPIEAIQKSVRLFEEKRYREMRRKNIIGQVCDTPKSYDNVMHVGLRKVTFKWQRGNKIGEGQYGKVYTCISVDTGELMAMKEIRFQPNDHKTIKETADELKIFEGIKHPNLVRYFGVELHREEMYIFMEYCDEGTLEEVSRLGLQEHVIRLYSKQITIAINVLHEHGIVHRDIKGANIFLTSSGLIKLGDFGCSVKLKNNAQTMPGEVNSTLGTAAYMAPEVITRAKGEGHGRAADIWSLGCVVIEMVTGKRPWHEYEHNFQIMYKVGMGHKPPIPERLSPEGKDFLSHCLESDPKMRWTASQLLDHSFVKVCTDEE
Rho-associated protein kinase 2, sequence (O75116 whole entry): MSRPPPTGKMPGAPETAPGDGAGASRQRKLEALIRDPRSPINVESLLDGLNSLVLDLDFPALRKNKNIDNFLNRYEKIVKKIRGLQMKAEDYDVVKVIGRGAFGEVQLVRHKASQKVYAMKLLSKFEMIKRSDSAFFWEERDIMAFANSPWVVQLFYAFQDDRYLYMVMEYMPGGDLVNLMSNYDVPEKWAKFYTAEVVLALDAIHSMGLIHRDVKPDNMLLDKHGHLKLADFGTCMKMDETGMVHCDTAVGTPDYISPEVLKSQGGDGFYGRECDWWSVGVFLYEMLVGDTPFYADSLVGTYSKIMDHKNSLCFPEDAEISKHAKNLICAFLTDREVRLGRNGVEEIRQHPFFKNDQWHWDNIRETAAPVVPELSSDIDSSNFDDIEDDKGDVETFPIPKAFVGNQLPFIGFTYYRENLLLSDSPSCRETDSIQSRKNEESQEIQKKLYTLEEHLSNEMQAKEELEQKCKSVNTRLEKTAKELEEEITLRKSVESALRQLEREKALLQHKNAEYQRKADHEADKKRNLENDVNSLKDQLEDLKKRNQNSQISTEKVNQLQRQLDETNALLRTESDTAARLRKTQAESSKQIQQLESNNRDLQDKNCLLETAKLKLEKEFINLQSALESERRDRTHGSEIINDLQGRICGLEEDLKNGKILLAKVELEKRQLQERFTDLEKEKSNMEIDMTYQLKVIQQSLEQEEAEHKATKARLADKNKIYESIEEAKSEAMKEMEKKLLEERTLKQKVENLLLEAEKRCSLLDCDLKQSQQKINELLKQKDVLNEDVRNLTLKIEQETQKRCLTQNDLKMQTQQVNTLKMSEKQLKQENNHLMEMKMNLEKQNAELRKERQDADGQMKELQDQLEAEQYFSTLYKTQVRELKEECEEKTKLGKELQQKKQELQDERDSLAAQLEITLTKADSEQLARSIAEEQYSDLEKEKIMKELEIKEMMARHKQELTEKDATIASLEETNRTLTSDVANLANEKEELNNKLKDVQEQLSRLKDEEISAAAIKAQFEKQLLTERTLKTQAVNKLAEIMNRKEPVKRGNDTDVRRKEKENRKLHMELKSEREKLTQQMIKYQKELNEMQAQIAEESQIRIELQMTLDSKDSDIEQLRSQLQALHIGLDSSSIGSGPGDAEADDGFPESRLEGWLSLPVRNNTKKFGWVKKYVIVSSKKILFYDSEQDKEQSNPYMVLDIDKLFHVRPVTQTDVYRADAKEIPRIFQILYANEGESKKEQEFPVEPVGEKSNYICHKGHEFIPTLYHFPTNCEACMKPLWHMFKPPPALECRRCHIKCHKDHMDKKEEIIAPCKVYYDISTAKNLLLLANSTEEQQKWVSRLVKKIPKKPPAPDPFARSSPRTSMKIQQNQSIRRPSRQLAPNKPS
DNA topoisomerase 2-alpha, sequence (P11388 whole entry): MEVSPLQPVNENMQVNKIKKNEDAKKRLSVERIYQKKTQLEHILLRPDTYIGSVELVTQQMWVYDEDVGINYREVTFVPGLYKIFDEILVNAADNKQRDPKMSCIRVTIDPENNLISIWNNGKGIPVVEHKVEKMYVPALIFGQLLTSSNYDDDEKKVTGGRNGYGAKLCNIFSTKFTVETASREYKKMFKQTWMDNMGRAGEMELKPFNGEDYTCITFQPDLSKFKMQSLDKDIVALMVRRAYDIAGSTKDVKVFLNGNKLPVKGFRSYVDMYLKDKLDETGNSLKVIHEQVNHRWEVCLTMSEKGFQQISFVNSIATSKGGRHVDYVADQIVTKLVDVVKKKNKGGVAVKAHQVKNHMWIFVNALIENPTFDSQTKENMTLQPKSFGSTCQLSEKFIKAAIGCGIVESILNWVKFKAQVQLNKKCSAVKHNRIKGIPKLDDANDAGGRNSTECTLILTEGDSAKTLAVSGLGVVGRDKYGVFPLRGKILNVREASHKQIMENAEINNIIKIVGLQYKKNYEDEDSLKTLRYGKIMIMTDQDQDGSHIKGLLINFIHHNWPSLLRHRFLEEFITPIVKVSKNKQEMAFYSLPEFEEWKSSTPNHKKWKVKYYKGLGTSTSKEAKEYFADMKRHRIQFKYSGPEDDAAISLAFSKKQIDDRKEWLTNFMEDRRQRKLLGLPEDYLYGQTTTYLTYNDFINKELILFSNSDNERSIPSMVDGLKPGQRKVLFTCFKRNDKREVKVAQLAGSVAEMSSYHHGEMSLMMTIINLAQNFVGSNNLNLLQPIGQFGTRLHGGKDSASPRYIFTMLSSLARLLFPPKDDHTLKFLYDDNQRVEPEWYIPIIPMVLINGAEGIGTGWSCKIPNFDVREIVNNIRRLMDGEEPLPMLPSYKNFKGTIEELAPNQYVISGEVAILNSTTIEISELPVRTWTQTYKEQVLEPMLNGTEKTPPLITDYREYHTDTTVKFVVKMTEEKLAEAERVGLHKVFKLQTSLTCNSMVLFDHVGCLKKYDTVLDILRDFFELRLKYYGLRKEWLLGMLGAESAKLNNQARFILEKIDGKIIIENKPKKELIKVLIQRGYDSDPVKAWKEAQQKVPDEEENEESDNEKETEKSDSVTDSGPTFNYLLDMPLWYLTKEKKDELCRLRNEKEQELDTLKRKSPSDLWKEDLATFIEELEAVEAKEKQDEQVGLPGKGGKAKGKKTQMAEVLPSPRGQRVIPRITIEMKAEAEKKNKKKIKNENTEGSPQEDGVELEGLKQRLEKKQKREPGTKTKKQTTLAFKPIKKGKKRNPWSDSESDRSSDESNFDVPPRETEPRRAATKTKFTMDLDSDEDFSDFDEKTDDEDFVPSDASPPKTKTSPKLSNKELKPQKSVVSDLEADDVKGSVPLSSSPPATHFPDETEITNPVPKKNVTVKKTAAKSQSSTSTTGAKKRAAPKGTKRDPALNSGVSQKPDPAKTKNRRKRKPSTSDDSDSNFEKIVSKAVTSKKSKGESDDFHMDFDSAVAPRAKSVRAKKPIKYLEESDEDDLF

One may read the Kd as the constant that tells how readily two partners part at equilibrium. Turning to `C[C@@H](Oc1cc(C(=O)Nc2ccc(C(=O)N3CCN(C)CC3)cc2)nnc1N)c1c(Cl)ccc(F)c1Cl`, the Kd in [1] is > 30 µM (inactive); in [2] it was > 30 µM (inactive); in [3], > 30 µM (inactive); in test [4] it was > 30 µM (inactive); in [5], 2.19 µM (active); in test [6] it was > 30 µM (inactive). The Kd in [7], in test [8], in [9] and in test [10] was > 30 µM (inactive) each time.
As for `C[C@H]1CNCCCN1S(=O)(=O)c1cccc2cncc(F)c12`, the Kd in test [1], in [2], in [3], in test [5], in test [6] and in test [7] was > 30 µM (inactive) each time. Also, the Kd in test [8] was > 30 µM (inactive); in test [9], 0.083 µM (active); in [10] it was 11.8 µM (active).
Consider `Nc1ncnc2c1c(-c1cccc(OCc3ccccc3)c1)cn2[C@H]1C[C@@H](CN2CCC2)C1` [AEW-541], for which the Kd in [1], in [2], in [3], in test [4], in test [5] and in [6] was > 30 µM (inactive) in each case. Moreover, the Kd is > 30 µM (inactive) in [7], > 30 µM (inactive) in test [8], 18.3 µM (active) in [9] and > 30 µM (inactive) in [10].
As for `Cc1cc(Nc2ncc(Cl)c(Nc3ccccc3S(=O)(=O)C(C)C)n2)c(OC(C)C)cc1C1CCNCC1` [CERITINIB], the Kd was 4.26 µM (active) in test [1]; > 30 µM (inactive) in test [2]; > 30 µM (inactive) in [3]; > 30 µM (inactive) in [4]; > 30 µM (inactive) in [5]; > 30 µM (inactive) in [6]. Besides, the Kd was 0.027 µM (active) in test [7], > 30 µM (inactive) in [8], > 30 µM (inactive) in [9] and > 30 µM (inactive) in test [10].
Regarding `CCS(=O)(=O)N1CCN(c2ccc(Nc3ncc(C(N)=O)c(NC4CC4)n3)cc2)CC1` [Cerdulatinib Hydrochloride], the Kd is 1.5 µM (active) in test [1]; > 30 µM (inactive) in test [2]; > 30 µM (inactive) in test [3]; > 30 µM (inactive) in [4]; > 30 µM (inactive) in test [5]; > 30 µM (inactive) in test [6]. Moreover, the Kd in test [7] is > 30 µM (inactive); in test [8], 0.128 µM (active); in test [9], > 30 µM (inactive); in test [10], 8.26 µM (active).
As for `CCn1cc(-c2ccnc3[nH]c(-c4cccc(CN(C)C)c4)cc23)c(-c2ccc(NC(=O)N(C)C)cc2)n1` [GSK-1070916], the Kd is > 30 µM (inactive) in [2]; > 30 µM (inactive) in [4]; > 30 µM (inactive) in test [5]; 1.43 µM (active) in [6]; 0.685 µM (active) in test [8]; 2.4 µM (active) in test [9]. Besides, the Kd in test [10] was > 30 µM (inactive).
In the case of `O=C(Nc1cc(C(F)(F)F)cc(C(F)(F)F)c1)c1cc(Cl)ccc1O` [IMD-0354], the Kd in test [2], in test [3], in test [4], in [5], in test [6] and in test [7] was > 30 µM (inactive) in each case. Also, the Kd in test [8], in [9] and in [10] was > 30 µM (inactive) each time.
`CNC(=O)c1nn(C)c2c1C(C)(C)Cc1cnc(Nc3ccc(N4CCN(C)CC4)cc3)nc1-2` [MILCICLIB]: the Kd in test [1] is 0.054 µM (active); in test [3], > 30 µM (inactive); in test [5] it was > 30 µM (inactive); in test [6] it was 4.02 µM (active); in test [7], 5.68 µM (active); in test [8], 0.11 µM (active). Further, the results for the Kd in [9] and in [10] were > 30 µM (inactive) and 10.6 µM (active), respectively.
On to `FC(F)(F)c1ccc(/C=C/c2nc(COc3ccc(CCCCn4ccnn4)cc3)co2)cc1` [MUBRITINIB], for which the Kd in test [1], in test [2], in test [3], in test [4], in [5] and in test [6] was > 30 µM (inactive) in each case. Besides, the Kd in test [7], in [8], in [9] and in [10] was > 30 µM (inactive) in each case.
`Cc1[nH]c(/C=C2\C(=O)Nc3ccccc32)c(C)c1CCC(=O)O` [ORANTINIB]: the equilibrium dissociation constant (Kd) is 0.012 µM in [2]; > 30 µM (inactive) in [4]; > 30 µM (inactive) in test [5]; > 30 µM (inactive) in test [6]; > 30 µM (inactive) in [8]; > 30 µM (inactive) in test [10].
Turning to `NC(=O)c1c(OCc2c(F)cc(Br)cc2F)nsc1NC(=O)NCCCCN1CCCC1` [OSI-632], the Kd was > 30 µM (inactive) in test [2]; > 30 µM (inactive) in test [4]; 0.135 µM (active) in test [5]; > 30 µM (inactive) in test [6]; > 30 µM (inactive) in test [7]; 0.904 µM (active) in test [8].
